Results taken from patent US9951081B1, “Chlorin e6 derivative and pharmaceutically acceptable salt thereof and process for preparing and use of the same” (priority 2016, dated 2018).
Read-outs that look alike come from different tables or passages of the source.

Experiments:
[1] = tested on: mice melanoma cell (B16-F10); assay: In vitro darktoxicity and PDT killing effect (CCK-8), B16-F10; type: cell-based; conditions: for PDT anti-cancer activity (in words): light dose of 8 J/cm^2
Source text: (§1) Human non-small cell lung cancer cellA549 and mice melanoma cell B16-F10 provided by Cell bank of Shanghai in Chinese Academy of Sciences were selected as cell strains.
(§2) 660 nm semiconductor laser therapeutic equipments manufactured by Baifei biomedical company of Shanghai was selected as a laser light source, with the largest output power of 2 W.
(§3) 1) Cell strains of tumors: culture of human non-small cell lung cancer cell (A549) and mice melanoma cell (B16-F10): frozen cells were taken out of liquid nitrogen, placed in a water bath at […]. […] The medium was renewed once every two days.
(§4) 2) Preparation of reagents: compounds of the present application to be tested and positive control drug Talaporfin were dissolved in a suitable amount of 0.1 M NaOH, adjusted pH to 7.4 by 0.1 M HCl. Normal saline was added to prepare drug stock solution in a suitable concentration.
(§5) 3) Detecting darktoxicity and PDT killing effects to the two tumor cells of compounds to be tested and positive control drug: 100 μL of 5×10^3/mL cell suspension was added into each well of 96-well plate, placed in a incubator at 37° C., 5% CO2 for 24 h. after removing cell medium, fresh mediums containing different concentration of samples were added, opened with three complex holes, and incubated for 24 h at 37° C. and 5% CO2 (volume concentration). After adding fresh medium, no light irradiated (darktoxicity) or 660 nm wavelength laser was used to irradiate (light dose was 8 J/cm^2) (phototoxicity). Cells were incubated for another 24 h. Cell medium containing drugs were removed and fresh medium was added. 200 μL medium containing 10% (v/v) CCK-8 (Dojindo Laboratories, Japan) was added into each well, and incubated for 1.5 h. Microplate reader (Tecan, Switzerland) was used to measure absorbance of each well at a wavelength of 450 nm.

[2] = tested on: human non-small cell lung cancer cell (A549); assay: In vitro darktoxicity and PDT killing effect (CCK-8), A549; type: cell-based; conditions: for PDT anti-cancer activity (in words): light dose of 8 J/cm^2
Source text: as §1, §2, §3, §4, §5

[3] = 660 nm laser, light dose 8 J/cm^2, read-out: Phototoxicity (IC50)
[4] = no light irradiated, 24 h drug incubation, read-out: Darktoxicity (IC50)

## CCC1=C(C)c2cc3[nH]c(cc4nc(c(CC(=O)N[C@@H](CC(=O)O)C(=O)O)c5[nH]c(cc1n2)c(C)c5C(=O)O)C(CCC(=O)O)C4C)c(C)c3C(C)OC (stereo partly drawn) [I1, N-[3-(1-methoxy)ethyl-3-devinylchlorine6-15^2-acyl]-L-aspartic acid]
[1]
  Ratio of Darktoxicity and Phototoxicity: 102.34
[1]; [3]
  IC50: 2.06 µM
[1]; [4]
  IC50: 211 µM
[2]
  Ratio of Darktoxicity and Phototoxicity: >227.27
[2]; [3]
  IC50: 1.32 µM
[2]; [4]
  IC50: > 300 µM

## CCCOC(C)c1c(C)c2cc3nc(c(CC(=O)N[C@@H](CC(=O)O)C(=O)O)c4[nH]c(cc5nc(cc1[nH]2)C(C)=C5CC)c(C)c4C(=O)O)[C@@H](CCC(=O)O)[C@@H]3C (stereo partly drawn) [I2, N-[3-(1-n-propoxyl)ethyl-3-devinylchlorine6-15^2-acyl]-L-aspartic acid]
[1]
  Ratio of Darktoxicity and Phototoxicity: 125.73
[1]; [3]
  IC50: 1.48 µM
[1]; [4]
  IC50: 186 µM
[2]
  Ratio of Darktoxicity and Phototoxicity: >288.46
[2]; [3]
  IC50: 1.04 µM
[2]; [4]
  IC50: > 300 µM

## CCCCCCOC(C)c1c(C)c2cc3nc(c(CC(=O)N[C@@H](CC(=O)O)C(=O)O)c4[nH]c(cc5nc(cc1[nH]2)C(C)=C5CC)c(C)c4C(=O)O)[C@@H](CCC(=O)O)[C@@H]3C (stereo partly drawn) [I3, N-[3-(1-n-hexyloxy)ethyl-3-devinylchlorine6-15^2-acyl]-L-aspartic acid]
[1]
  Ratio of Darktoxicity and Phototoxicity: 215.65
  PDT anti-cancer activity (in words): best
[1]; [3]
  IC50: 0.89 µM
[1]; [4]
  IC50: 192 µM
[1]; relative to Talaporfin
  PDT anti-tumor activity, times that of Talaporfin: 12.07 times
  ratio of darktoxicity-phototoxicity, times that of Talaporfin: 13.64 times
[2]
  Ratio of Darktoxicity and Phototoxicity: 438.34
  PDT anti-cancer activity (in words): best
[2]; [3]
  IC50: 0.65 µM
[2]; [4]
  IC50: 285 µM
[2]; relative to Talaporfin
  PDT anti-tumor activity, times that of Talaporfin: 13.63 times
  ratio of darktoxicity-phototoxicity, times that of Talaporfin: 14.04 times

## CCC1=C(C)c2cc3[nH]c(cc4nc(c(CC(=O)N[C@@H](CC(=O)OC(C)(C)C)C(=O)OC(C)(C)C)c5[nH]c(cc1n2)c(C)c5C(=O)O)[C@@H](CCC(=O)O)[C@@H]4C)c(C)c3C(C)OCCOC (stereo partly drawn) [I4, N-[3-[1-(2-methoxy)ethyoxyl]ethyl-3-devinylchlorine6-15^2-acyl]-L-aspartic acid di-tert-butyl ester]
[1]
  Ratio of Darktoxicity and Phototoxicity: 113.91
[1]; [3]
  IC50: 1.61 µM
[1]; [4]
  IC50: 183 µM
[2]
  Ratio of Darktoxicity and Phototoxicity: 255.18
[2]; [3]
  IC50: 1.17 µM
[2]; [4]
  IC50: 299 µM

## CCC1=C(C)c2cc3[nH]c(cc4nc(c(CC(=O)N[C@@H](CC(=O)O)C(=O)O)c5[nH]c(cc1n2)c(C)c5C(=O)O)C(CCC(=O)O)C4C)c(C)c3C(C)OCCCCOC (stereo partly drawn) [I7, N-[3-[1-(4-methoxy)butoxy]ethyl-3-devinylchlorine6-15^2-acyl]-L-aspartic acid]
[1]
  Ratio of Darktoxicity and Phototoxicity: 159.38
[1]; [3]
  IC50: 1.04 µM
[1]; [4]
  IC50: 166 µM
[2]
  Ratio of Darktoxicity and Phototoxicity: 317.88
[2]; [3]
  IC50: 0.86 µM
[2]; [4]
  IC50: 273 µM

## CCC1=C(C)c2cc3[nH]c(cc4nc(c(CC(=O)N[C@@H](CC(=O)O)C(=O)O)c5[nH]c(cc1n2)c(C)c5C(=O)O)[C@@H](CCC(=O)O)[C@@H]4C)c(C)c3C(C)OCCOCCOC (stereo partly drawn) [I8, N-[3-[1-(2-(2-methoxy)ethyoxyl)ethyoxyl]ethyl-3-devinylchlorine6-15^2-acyl]-L-aspartic acid]
[1]
  Ratio of Darktoxicity and Phototoxicity: 122.07
[1]; [3]
  IC50: 1.43 µM
[1]; [4]
  IC50: 175 µM
[2]
  Ratio of Darktoxicity and Phototoxicity: 283.98
[2]; [3]
  IC50: 1.01 µM
[2]; [4]
  IC50: 287 µM

## CCCOC(C)c1c(C)c2cc3nc(c(CC(=O)N[C@@H](CCC(=O)O)C(=O)O)c4[nH]c(cc5nc(cc1[nH]2)C(C)=C5CC)c(C)c4C(=O)O)[C@@H](CCC(=O)O)[C@@H]3C (stereo partly drawn) [I11, N-[3-(1-n-propoxyl)ethyl-3-devinylchlorine6-15^2-acyl]-L-glutamic acid]
[1]; [4]
  IC50: 173 µM
[2]; [3]
  IC50: 1.12 µM
[2]; [4]
  IC50: 278 µM

## CCCCCCOC(C)c1c(C)c2cc3nc(c(CC(=O)N[C@@H](CCC(=O)O)C(=O)O)c4[nH]c(cc5nc(cc1[nH]2)C(C)=C5CC)c(C)c4C(=O)O)C(CCC(=O)O)C3C (stereo partly drawn) [I12, N-[3-(1-n-hexyloxy)ethyl-3-devinylchlorine6-15^2-acyl]-L-glutamic acid]
[1]
  PDT anti-cancer activity (in words): best
[2]
  PDT anti-cancer activity (in words): best

## CCC1=C(C)c2cc3[nH]c(cc4nc(c(CC(=O)N[C@@H](CCC(=O)O)C(=O)O)c5[nH]c(cc1n2)c(C)c5C(=O)O)[C@@H](CCC(=O)O)[C@@H]4C)c(C)c3C(C)OCCOC (stereo partly drawn) [I13, N-[3-[1-(2-methoxy)ethyoxyl]ethyl-3-devinylchlorine6-15^2-acyl]-L-glutamic acid]
[1]
  Ratio of Darktoxicity and Phototoxicity: 92.93
[1]; [3]
  IC50: 1.72 µM
[1]; [4]
  IC50: 160 µM
[2]
  Ratio of Darktoxicity and Phototoxicity: 213.90
[2]; [3]
  IC50: 1.25 µM
[2]; [4]
  IC50: 267 µM

## CCC1=C(C)c2cc3[nH]c(cc4nc(c(CC(=O)N[C@@H](CCC(=O)O)C(=O)O)c5[nH]c(cc1n2)c(C)c5C(=O)O)[C@@H](CCC(=O)O)[C@@H]4C)c(C)c3C(C)OCCOCCOC (stereo partly drawn) [I17, N-[3-[1-(2-(2-methoxy)ethyoxyl)ethyoxyl]ethyl-3-devinylchlorine6-15^2-acyl]-L-glutamic acid]
[1]
  Ratio of Darktoxicity and Phototoxicity: 111.04
[1]; [3]
  IC50: 1.52 µM
[1]; [4]
  IC50: 169 µM
[2]
  Ratio of Darktoxicity and Phototoxicity: 240.63
[2]; [3]
  IC50: 1.1 µM
[2]; [4]
  IC50: 265 µM

## CCC1=C(C)c2cc3[nH]c(cc4nc(c(CC(=O)N[C@@H](CCCCN)C(=O)O)c5[nH]c(cc1n2)c(C)c5C(=O)O)C(CCC(=O)O)C4C)c(C)c3C(C)OC (stereo partly drawn) [I19, N^α-[3-(1-methoxy)ethyl-3-devinylchlorine6-15^2-acyl]-L-lysine]
[1]
  Ratio of Darktoxicity and Phototoxicity: 84.41
[1]; [3]
  IC50: 2.28 µM
[1]; [4]
  IC50: 192 µM
[2]
  Ratio of Darktoxicity and Phototoxicity: >156.25
[2]; [3]
  IC50: 1.92 µM
[2]; [4]
  IC50: > 300 µM

## CCCOC(C)c1c(C)c2cc3nc(c(CC(=O)N[C@@H](CCCCN)C(=O)O)c4[nH]c(cc5nc(cc1[nH]2)C(C)=C5CC)c(C)c4C(=O)O)[C@@H](CCC(=O)O)[C@@H]3C (stereo partly drawn) [I20, N-[3-(1-n-propoxyl)ethyl-3-devinylchlorine6-15^2-acyl]-L-lysine]
[1]
  Ratio of Darktoxicity and Phototoxicity: 92.87
[1]; [3]
  IC50: 1.75 µM
[1]; [4]
  IC50: 163 µM
[2]
  Ratio of Darktoxicity and Phototoxicity: >225.56
[2]; [3]
  IC50: 1.33 µM
[2]; [4]
  IC50: > 300 µM

## CCCCCCOC(C)c1c(C)c2cc3nc(c(CC(=O)N[C@@H](CCCCN)C(=O)O)c4[nH]c(cc5nc(cc1[nH]2)C(C)=C5CC)c(C)c4C(=O)O)C(CCC(=O)O)C3C (stereo partly drawn) [I21, N-[3-(1-n-hexyloxy)ethyl-3-devinylchlorine6-15^2-acyl]-L-lysine]
[1]
  Ratio of Darktoxicity and Phototoxicity: 171.31
  PDT anti-cancer activity (in words): best
[1]; [3]
  IC50: 1.05 µM
[1]; [4]
  IC50: 180 µM
[2]
  Ratio of Darktoxicity and Phototoxicity: 370.30
  PDT anti-cancer activity (in words): best
[2]; [3]
  IC50: 0.79 µM
[2]; [4]
  IC50: 293 µM

## CCC1=C(C)c2cc3[nH]c(cc4nc(c(CC(=O)N[C@@H](CCCCN)C(=O)O)c5[nH]c(cc1n2)c(C)c5C(=O)O)[C@@H](CCC(=O)O)[C@@H]4C)c(C)c3C(C)OCCOC (stereo partly drawn) [I22, N-[3-[1-(2-methoxy)ethyoxyl]ethyl-3-devinylchlorine6-15^2-acyl]-L-lysine]
[1]
  Ratio of Darktoxicity and Phototoxicity: 89.24
[1]; [3]
  IC50: 1.91 µM
[1]; [4]
  IC50: 170 µM
[2]
  Ratio of Darktoxicity and Phototoxicity: 175.76
[2]; [3]
  IC50: 1.47 µM
[2]; [4]
  IC50: 258 µM

## CCC1=C(C)c2cc3[nH]c(cc4nc(c(CC(=O)N[C@@H](CCCCN)C(=O)O)c5[nH]c(cc1n2)c(C)c5C(=O)O)C(CCC(=O)O)C4C)c(C)c3C(C)OCCCCOC (stereo partly drawn) [I25, N-[3-[1-(4-methoxy)butoxy]ethyl-3-devinylchlorine6-15^2-acyl]-L-lysine]
[1]
  Ratio of Darktoxicity and Phototoxicity: 140.15
[1]; [3]
  IC50: 1.16 µM
[1]; [4]
  IC50: 163 µM
[2]
  Ratio of Darktoxicity and Phototoxicity: 222.06
[2]; [3]
  IC50: 1.08 µM
[2]; [4]
  IC50: 240 µM

## CCC1=C(C)c2cc3[nH]c(cc4nc(c(CC(=O)N[C@@H](CCCCN)C(=O)O)c5[nH]c(cc1n2)c(C)c5C(=O)O)[C@@H](CCC(=O)O)[C@@H]4C)c(C)c3C(C)OCCOCCOC (stereo partly drawn) [I26, N-[3-[1-(2-(2-methoxy)ethyoxyl)ethyoxyl]ethyl-3-devinylchlorine6-15^2-acyl]-L-lysine]
[1]
  Ratio of Darktoxicity and Phototoxicity: 105.20
[1]; [3]
  IC50: 1.67 µM
[1]; [4]
  IC50: 176 µM
[2]
  Ratio of Darktoxicity and Phototoxicity: 201.61
[2]; [3]
  IC50: 1.23 µM
[2]; [4]
  IC50: 248 µM

## C=Cc1c(C)c2cc3nc(c(CC(=O)N[C@@H](CC(=O)O)C(=O)O)c4[nH]c(cc5nc(cc1[nH]2)C(C)=C5CC)c(C)c4C(=O)O)[C@@H](CCC(=O)O)[C@@H]3C [Talaporfin, reference compound]
[1]
  Ratio of Darktoxicity and Phototoxicity: 15.81
[1]; Mus musculus, light or radiation study, 660 nm laser, light dose 8 J/cm^2, read-out: Phototoxicity (IC50)
  IC50: 10.7 µM
[1]; Mus musculus, light or radiation study, no light irradiated, 24 h drug incubation, read-out: Darktoxicity (IC50)
  IC50: 170 µM
[2]
  Ratio of Darktoxicity and Phototoxicity: 31.21
[2]; Homo sapiens, light or radiation study, 660 nm laser, light dose 8 J/cm^2, read-out: Phototoxicity (IC50)
  IC50: 8.86 µM
[2]; Homo sapiens, light or radiation study, no light irradiated, 24 h drug incubation, read-out: Darktoxicity (IC50)
  IC50: 277 µM
